Assay results reported in PMC8157854, “Radiosynthesis and Evaluation of Talazoparib and Its Derivatives as PARP-1-Targeting Agents” (Biomedicines, 2021).
Values belong to the compound of their own block, whether it stands above or below them.

Experiments:
[1] = test system: P-glycoprotein (P-gp); parameters: method as in PMID 31770456; details: cited from earlier work
[2] = test system: intratumoral PAR; parameters: method as in PMID 26652717; details: at 2 and 8 h time points, partial recovery at 24 h; cited from earlier work
[3] = biological target: PARP-1 (Homo sapiens, UniProt P09874); test: Competitive binding assay with [3H]WC-DZ in U251MG cells; details: for pseudoHill coefficient n′H: competitive binding vs [3H]WC-DZ in U251MG cells, Mean ± SEM, n = 3
Excerpt: After the reaction was completed, the cells were washed once with ice-cold PBS and the bound radioactivity was counted and analyzed as described above.
Competitive dissociation constants (Ki values) were derived from the Cheng and Prussoff equation [24]: Ki=IC50/1+Lt/Kd
Data from competitive binding were transformed to determine the pseudo-Hill coefficient, n′H, using the following equation: logBs/B0−Bs=n^′HlogI−n^′HlogIC50, in which the negative of the Hill slope, n′H, can be readily calculated by a linear regression of plotting logBs/B0−Bs vs. logI , as we published [22, 25].

[4] = test system: PC-3 prostate tumors; test: Biodistribution of [18F]talazoparib in PC-3 tumor-bearing SCID mice; type: in vivo; details: for tumor uptake: PC-3 tumor
Excerpt: 2.5. Xenograft Model The animal studies were approved by Washington University’s Institutional Animal Care and Use Committee (IACUC), Protocol #20-0214 approved 7 August 2020. The overall animal care was following The Guide for the Care and Use of Laboratory Animals from the National Research Council and the USDA Animal Care Resource Guide. Mature SCID mice from Charles River Laboratories were allowed to acclimate in an AALAC accredited housing facility for at least 1 week before tumor implantation for the biodistribution study. Male SCID mice (4 weeks old, n = 4/group, 2 groups), with 1 × 10^7 PC-3 prostate cancer cells implanted subcutaneously in the right shoulder grew for about 35 days before the radiotracer biodistribution studies. 2.6. Biodistribution Animals were intravenously injected with [^18F]talazoparib (120 µCi) in 10% ethanol/saline (100 µL) via the tail vein. At the specified time point (4 and 8 h), the mice were sacrificed, the blood, lungs, liver, spleen, kidneys, muscle, fat, heart, brain, bone, bone marrow, prostate, pancreas, and tumor were harvested, weighed, and counted in a γ-counter. The percentage injected dose per gram of tissue (%ID/g) was determined by decay correction of the [^18F]talazoparib for each sample and then normalized by the standard injected radiotracer dose and the sample weight.

Sequence of PARP-1 (P09874 whole entry): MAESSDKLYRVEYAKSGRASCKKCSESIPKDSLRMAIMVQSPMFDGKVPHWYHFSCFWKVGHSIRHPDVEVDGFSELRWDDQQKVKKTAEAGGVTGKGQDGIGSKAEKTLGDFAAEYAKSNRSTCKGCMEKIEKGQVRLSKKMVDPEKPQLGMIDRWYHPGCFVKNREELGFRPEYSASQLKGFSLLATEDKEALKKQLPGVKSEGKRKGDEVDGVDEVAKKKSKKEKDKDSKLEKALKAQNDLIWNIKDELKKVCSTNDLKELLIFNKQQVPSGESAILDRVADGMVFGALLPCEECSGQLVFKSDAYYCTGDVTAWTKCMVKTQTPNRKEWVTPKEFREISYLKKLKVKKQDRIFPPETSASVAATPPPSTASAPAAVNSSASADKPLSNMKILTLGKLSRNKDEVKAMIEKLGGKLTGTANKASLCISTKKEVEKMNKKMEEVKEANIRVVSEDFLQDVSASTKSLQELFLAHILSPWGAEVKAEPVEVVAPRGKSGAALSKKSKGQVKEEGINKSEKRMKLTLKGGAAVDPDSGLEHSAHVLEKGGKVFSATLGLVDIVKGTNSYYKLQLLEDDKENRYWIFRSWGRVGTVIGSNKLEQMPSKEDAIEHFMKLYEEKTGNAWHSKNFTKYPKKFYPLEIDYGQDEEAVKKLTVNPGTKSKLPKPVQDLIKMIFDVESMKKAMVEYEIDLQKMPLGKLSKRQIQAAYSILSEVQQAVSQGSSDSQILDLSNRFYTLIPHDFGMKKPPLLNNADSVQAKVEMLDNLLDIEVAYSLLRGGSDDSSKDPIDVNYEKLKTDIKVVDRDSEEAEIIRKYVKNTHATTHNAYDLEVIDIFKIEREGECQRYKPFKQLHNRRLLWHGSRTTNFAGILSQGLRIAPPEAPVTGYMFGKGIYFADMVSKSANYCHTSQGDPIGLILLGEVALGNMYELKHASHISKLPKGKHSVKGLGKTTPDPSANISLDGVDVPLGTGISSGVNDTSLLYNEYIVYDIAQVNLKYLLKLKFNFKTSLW

SMILES: Cn1ncnc1[C@H]1c2n[nH]c(=O)c3cc(F)cc(c23)N[C@@H]1c1ccc(F)cc1 [3a″, (8S,9R)-5-Fluoro-8-(4-fluorophenyl)-9-(1-methyl-1H-1,2,4-triazol-5-yl)-2,7,8,9-tetrahydro-3H-pyrido[4,3,2-de]phthalazin-3-one]
P-glycoprotein substrate [1]: substrate of P-glycoprotein (P-gp) | intratumoral PAR concentration [2]: significantly attenuated

SMILES: CCN1CCC[C@H]1CNC(=O)c1c(O)c(Cl)cc(Cl)c1OC [Raclopride, reference compound]
Ki [3]: > 20000 nM | displacement of [3H]WC-DZ ([3]; U251MG cells, 0.1 nM to 1 µM): No apparent displacement

SMILES: Cn1ncnc1[C@H]1c2n[nH]c(=O)c3cc(F)cc(c23)N[C@@H]1c1ccc([18F])cc1 [[^18F]talazoparib]
tumor uptake ([4]; 4 h post-injection, i.v., SCID mice): 3.78 ± 0.55 %ID/gram | tumor uptake ([4]; 8 h post-injection, i.v., SCID mice): 4.52 ± 0.32 %ID/gram | uptake in liver, spleen, kidney, and pancreas ([4]; after 4 h, only slightly reduced at 8 h): High uptake | uptake in bone marrow ([4]; at 4 and 8 h): high | time for clearance of radioactivity from the blood ([4]; blood, i.v., SCID mice): ≤ 4 h | brain uptake ([4]; brain, 4 h post-injection, i.v., SCID mice): 0.05 ± 0.01 %ID/gram

Continued, values first:

Ki [3]: 1.92 ± 0.41 nM | pseudoHill coefficient n′H [3]: 1.24 ± 0.24
SMILES: Cn1ncnc1C1c2n[nH]c(=O)c3cc(F)cc(c23)NC1c1ccc(Br)cc1 (centres unmarked) [Compound 3b, 8-(4-bromophenyl)-5-fluoro-9-(1-methyl-1H-1,2,4-triazol-5-yl)-2,7,8,9-tetrahydro-3H-pyrido[4,3,2-de]phthalazin-3-one]

Ki [3]: 1.73 ± 0.43 nM | pseudoHill coefficient n′H [3]: 1.01 ± 0.20
SMILES: Cn1ncnc1C1c2n[nH]c(=O)c3cc(F)cc(c23)NC1c1ccc(I)cc1 (centres unmarked) [Compound 3c, 8-(4-iodophenyl)-5-fluoro-9-(1-methyl-1H-1,2,4-triazol-5-yl)-2,7,8,9-tetrahydro-3H-pyrido[4,3,2-de]phthalazin-3-one]
